Reference: patent US20110189174A1, “COMPOSITIONS AND METHODS FOR TREATING, REDUCING, AMELIORATING, ALLEVIATING, OR INHIBITING PROGRESSION OF, PATHOGENIC OCULAR NEOVASCULARIZATION” (priority 2010, published 2011)

What was measured:
[1] = Ocular clinical findings in rats 14 days after intravitreal injection
Experimental: The anterior segment of the eye was examined using a slit-lamp biomicroscopy for excluding any animals with abnormalities that might interfere with the study. Fundus photography and fluorescein angiography (FA) were performed to document the health of the retina and the ocular circulation using a TRC 50EX fundus camera (Topcon). For FA, 10% sodium fluorescein was injected intravenously (50 mg/kg of body weight) through the tail vein or the vein under the incisor before the procedure.
Immediately after placement of laser photocoagulation, the experimental eyes received an intravitreal injection of either a compound or a vehicle as described in Table 5. Following the disinfection of ocular surface with 5% betadine and 0.9% saline solutions, the injections were performed with aid of a surgical microscope using 0.3 mL syringes with a 31-gauge ½-inch long needle (Ultra-Fine II™ Insulin syringe, BD, Franklin Lakes, N.J.).
Two weeks after photocoagulation, all rats were examined under anesthesia and pupil dilation with slit-lamp biomicroscopy, fundus photography and FA as described in the baseline examination.

[2] = system: human retinal endothelial cells (HREC); test: Testing 7: VEGF-induced HREC proliferation (MTS assay), integrin antagonists and Lucentis alone and in combination; assay type: cell-based
Experimental: HREC were first cultured overnight in a 96-well plate coated with fibronectin. The next day medium containing different agents as shown in Tables 14 and 15 was pre-incubated for 1 hour before being added into appropriate wells. The cells were cultured at 37° C., 5% CO2, and 95% humidity for another 3 days. After that, cell proliferation was estimated by the MTS assay. In the first study we used VEGF 10 ng/mL (about EC80 in study PH08169), Lucentis® 1 ng/mL (about EC25 in study PH09038) and 5 doses of BOL-303055-X. Normal IgG (1 ng/ml) was also added to groups containing no Lucentis®. All groups contained the same amount of 0.1% DMSO. In the second study, all five compounds (BOL-303049-X, BOL-303050-X, BOL-303051-X, BOL-303054-X and BOL-303055-X) were tested at 1 nM with other conditions remaining the same.
A 96-well plate was coated with human fibronectin (10 μg/mL) for 5 hours at 37° C. HREC were washed with HBSS buffer once, tripsinized and re-suspended in 10% FBS CS-C medium at 18,000 cells/mL. Cells (200 μL) were added to the plate and cultured overnight at 37° C., 5% CO2, and 95% humidity. Next day, the cells were serum-starved for 2 hours.
For study I, VEGF at 10 ng/mL, Lucentis® at 1 ng/mL and BOL-303055-X at 0.1, 0.3, 1, 3 and 10 nM were prepared in 1% FBS CS medium as shown in Table 14. Normal IgG (1 ng/mL) were added to groups containing no Lucentis®. All medium solutions were incubated for 1 hour at 37° C. After carefully medium was aspirated, 200 μL of the medium containing different agents were then added into appropriate wells. The cells were cultured for another 3 days. For the study II as shown in the Table 15, five compounds were tested at 1 nM with other conditions remaining the same as study I.
At the end of incubation, the medium was carefully aspirated from cells and 120 μl of MTS working solution was added into all wells including blank wells (without cells). The plates were incubated at 37° C., 5% CO2, and 95% humidity for 1 hour and then read by a plate reader at 490 nm wavelength.
Median optical density (OD) was generated from different groups. Data were expressed as mean±SEM of the OD values. Statistical analysis was performed using three-way ANOVA after Box-Cox transformations, and p<0.05 was considered statistically significant. To evaluate whether the effects of the combinations were either synergistic or additive, net inhibitions were calculated by subtracting the basal levels in the presence of VEGF from the individual treatments (Lucentis® and Integrin blockers) and the combinations. […] Data analysis was performed utilizing the statistical analysis software JMP (SAS Institute, Cary, N.C.).

[3] = Day 14, 200 μg/eye intravitreal
[4] = study II, compound 1 nM, Lucentis 1 ng/mL

Row | Eyes with anterior chamber inflammation/Total eyes [1, 3] | Eyes with retinal vascular congestion/vessel-observable eyes [1, 3] | SMILES | Intraocular inflammation and retinal vascular congestion ([1]; Day 14 after intravitreal injection) | Combination effect with Lucentis on VEGF-induced HREC proliferation (synergistic/additive) [2, 4] | Posterior synechiae of iris [1, 3] | HREC proliferation without VEGF ([2]; basal and Lucentis-treatment conditions, Lucentis 1 ng/mL, BOL-303055-X 0.1-10 nM, other compounds 1 nM) | Inhibiting effect on VEGF-induced HREC proliferation in the presence of Lucentis versus without ([2]; study I, 0.1, 0.3, 1, 3 and 10 nM, Lucentis 1 ng/mL) | Inhibition of VEGF-induced HREC proliferation, compound alone ([2]; study I, 0.1-10 nM, VEGF 10 ng/mL) | Combination effect with Lucentis on VEGF-induced HREC proliferation (synergistic/additive) ([2]; study I, compound 0.1 nM, Lucentis 1 ng/mL) | Combination effect with Lucentis on VEGF-induced HREC proliferation (synergistic/additive) ([2]; study I, compound 0.3 nM, Lucentis 1 ng/mL) | Combination effect with Lucentis on VEGF-induced HREC proliferation (synergistic/additive) ([2]; study I, compound 1, 3 and 10 nM, Lucentis 1 ng/mL)
1 | 0/6 | 0/5 | COc1ccc(S(=O)(=O)N[C@@H](CNc2nc(C)nc(N3CCC(c4ccc5c(n4)NCCC5)CC3)c2C)C(=O)O)cc1 [BOL-303050-X] | Neither inflammation nor retinal vascular congestion was observed | additive effects | – | – | – | – | – | – | –
2 | 4/6 | 4/5 | COc1c(NC[C@H](NC(=O)OCc2ccccc2)C(=O)O)ncnc1N1CCC(c2ccc3c(n2)NCCC3)CC1 [BOL-303054-X] | – | additive effects | – | – | – | – | – | – | –
3 | 5/6 | 2/2 | CCc1nc(NC[C@H](NC(=O)OCc2ccccc2)C(=O)O)c(C)c(N2CCC(c3ccc4c(n3)NCCC4)CC2)n1 [BOL-303055-X] | – | additive effects | Posterior synechiae of iris occurred in several eyes | reduced HREC proliferation in a statistically significant and dose-dependent manner | significantly greater inhibiting effect | inhibited VEGF-induced HREC proliferation in a dose-dependent manner | synergistic effects | additive | additive
